The text below walks through data of patent publication US20260347310A1, “PHENALKYLAMINES AND METHODS OF MAKING AND USING THE SAME” (GILGAMESH PHARMACEUTICALS, INC., priority 2022, published 2026).

One series deals with T1, 5-HT2B receptor (Homo sapiens, UniProt P41595).
T1 construct: expressed in transfected cells; host or cells: HEK293
Description: FLIPR Ca2+ flux functional agonist assay at 5-HT2B. In kind it is cell-based. Particulars: for Emax: agonist activity, FLIPR Ca2+ flux, HEK293, at max dose, read-out: 5-HT2B % Act @ Max Dose. The protocol:
(§1) Disclosed compounds were tested for agonist activity at several serotonin receptor subtypes (5-HT2A, […], and 5-HT2C) using Ca^2+ flux functional assays, with the results summarized in Table 9.
(§2) Test Compounds. Compounds were prepared as described above.
(§3) Functional Assays at 5-HT2A and 5-HT2B. Agonist activity at 5-HT2A and 5-HT2B receptors was determined using a FLIPR Ca^2+ flux assay at WuXi AppTec (Hong Kong) Limited according to their standard protocols. Briefly, stably transfected cells expressing the receptor of interest (HEK293 for both 5-HT2A and 5-HT2B) were grown and plated in a 384-well plate and incubated at 37° C. and 5% CO2 overnight. A solution of 250 mM probenecid in 1 mL FLIPR assay buffer was prepared fresh. This was combined with a fluorescent dye (Fluo-4 Direct™) to make a final assay concentration of 2.5 mM. Compounds were diluted 1:3.16 for 10 points and 750 nL was added to a 384 well compound plate using ECHO along with 30 μL assay buffer. The fluorescent dye was then added to the assay plate along with assay buffer to a final volume of 40 μL. The cell plate was incubated for 50 min at 37° C. and 5% CO2 and placed into the FLIPR Tetra along with the compound plate. 10 μL of references and compounds were then transferred from the compound plate into the cell plate and the fluorescent signal was read.
A general note: Calcium assays in cells follow changes in intracellular calcium, usually with a dye or a luminescent sensor.

Series [1] concerns the target T2, 5-HT2A receptor (Homo sapiens, UniProt P28223). In words: PathHunter beta-arrestin recruitment functional agonist assay at 5-HT2A. In kind it is cell-based. Also on record: expressed in transfected cells; host or cells: PathHunter cells (Eurofins DiscoverX). Particulars: for agonist activity at 5-HT2A in arrestin assay (in words): beta-arrestin recruitment; for Emax: read-out: 5-HT2A Arrestin % Act @ Max Dose. The protocol: Disclosed compounds were tested for agonist activity at the 5-HT2A receptor using a beta-arrestin (arrestin) recruitment functional assay, with the results summarized in Table 10.
Arrestin Functional Assay at 5-HT2A. Recruitment of beta-arrestin was determined using a PathHunter assay at Eurofins DiscoverX (Fremont, CA) according to their standard protocols. PathHunter GPCR beta-arrestin assays take advantage of DiscoverX's proprietary Enzyme Fragment Complementation technology. The GPCR is fused in frame with a small enzyme donor fragment ProLink™ (PK) and co-expressed in cells stably expressing a fusion protein of beta-arrestin and the larger, N-terminal deletion mutant of beta-galactosidase. Activation of the GPCR (5-HT2A receptor in this case) stimulates binding of beta-arrestin to the PK-tagged GPCR and forces complementation of the two enzyme fragments, resulting in the formation of an active beta-galactosidase enzyme. This interaction leads to an increase in enzyme activity that can be measured using chemiluminescent PathHunter Detection Reagents. Briefly, PathHunter cells expressing 5-HT2A receptors were seeded in a volume of 20 μL into 384-well plates and incubated at 37° C. for the appropriate time prior to testing. For agonist activity determination, cells were incubated with 5 μL of 5× sample in assay buffer and incubated at 37° C. for 90-180 min with a vehicle concentration of 1%. Plates were then imaged on a microplate reader and the agonist activity was calculated using the following formula: % Activity=100%×(mean RLU of test sample−mean RLU of vehicle control)/(mean MAX control ligand−mean RLU of vehicle control), where RLU=relative light units.
In general terms: Arrestin recruitment assays detect the binding of arrestin to an activated receptor.

The target of series [2] is T2, 5-HT2A receptor. Description: Radioligand binding at 5-HT2A ([3H]ketanserin). Also on record: expressed in transfected cells. The method, then:
The binding affinities of disclosed compounds at the ketanserin binding site of the 5-HT2A receptor, the LSD binding site of the 5-HT2B receptor, and the mesulergine binding site of the 5-HT2C receptor were determined in radioligand binding experiments.
Method. The affinity of the test compounds for 5-HT2A, 5-HT2B, and 5-HT2C receptors was determined in radioligand binding experiments with [^3H]ketanserin, [^3H]LSD, and [^3H]mesulergine, respectively, by WuXi AppTec (Hong Kong) Limited, using methods adapted from the literature and under conditions described in Table 7.

For series [3], the target named is T2, 5-HT2A receptor. Description: FLIPR Ca2+ flux functional agonist assay at 5-HT2A. In kind it is cell-based. Also on record: expressed in transfected cells; host or cells: HEK293. Particulars: for agonist activity at 5-HT2A (in words): potency or efficacy; for Emax: HEK293, read-out: 5-HT2A % Act @ Max Dose. The protocol: as §1, §2, §3
Series [4] in a line: Metabolic stability in human liver microsomes (HLM). Particulars: for stability in HLM (in words): 1 μM, 0.50 mg protein/mL, 1 mM NADPH, 37 °C, 60 min; for half-life at 1 µM / microsomal CLint at 1 µM: human liver microsomes 0.50 mg/mL, NADPH 1 mM, test compound 1 μM, 37° C., pH 7.4, 60 min. In kind it is in vitro ADME. The method, then:
as §2
(§4) HLM Stability. Pooled HLM from adult male and female donors (Corning 452117) were used. Microsomal incubations were carried out in multi-well plates. Liver microsomal incubation medium consisted of PBS (100 mM, pH 7.4), MgCl2 (1 mM), and NADPH (1 mM), with 0.50 mg of liver microsomal protein per mL. Control incubations were performed by replacing the NADPH-cofactor system with PBS. Test compounds (1 μM, final solvent concentration 1.0%) were incubated with microsomes at 37° C. with constant shaking. Six time points over 60 minutes were analyzed, with 60 μL aliquots of the reaction mixture being drawn at each time point. The reaction aliquots were stopped by adding 180 μL of cold (4° C.) acetonitrile containing 200 ng/mL tolbutamide and 200 ng/mL labetalol as internal standards (IS), followed by shaking for 10 minutes, and then protein sedimentation by centrifugation at 4,000 rpm for 20 minutes at 4° C. Supernatant samples (80 μL) were diluted with water (240 μL) and analyzed for parent compound remaining using a fit-for-purpose liquid chromatography-tandem mass spectrometry (LC-MS/MS) method.
(§5) Data Analysis. The elimination constant (kel), half-life (t1/2), and intrinsic clearance (CLint) were determined in a plot of […] versus time, using linear regression analysis.

A short description of series [5]: Metabolic stability in dog liver microsomes (DLM). In kind it is in vitro ADME, Beagle dogs. Particulars: for stability in DLM (in words): 1 μM, 0.50 mg protein/mL, 1 mM NADPH, 37 °C, 60 min; for half-life at 1 µM / microsomal CLint at 1 µM: dog liver microsomes 0.50 mg/mL, NADPH 1 mM, test compound 1 μM, 37° C., pH 7.4, 60 min. The protocol: as §2
as §4, with “DLM” for “HLM”, “Beagle dogs (Xenotech D1000)” for “and female donors (Corning 452117)”
as §5

Entries after “also recorded” stand apart in the source; their conditions may differ. Where only a bound is given, the exact number is not on record here.

T1 sequence (P41595 whole entry): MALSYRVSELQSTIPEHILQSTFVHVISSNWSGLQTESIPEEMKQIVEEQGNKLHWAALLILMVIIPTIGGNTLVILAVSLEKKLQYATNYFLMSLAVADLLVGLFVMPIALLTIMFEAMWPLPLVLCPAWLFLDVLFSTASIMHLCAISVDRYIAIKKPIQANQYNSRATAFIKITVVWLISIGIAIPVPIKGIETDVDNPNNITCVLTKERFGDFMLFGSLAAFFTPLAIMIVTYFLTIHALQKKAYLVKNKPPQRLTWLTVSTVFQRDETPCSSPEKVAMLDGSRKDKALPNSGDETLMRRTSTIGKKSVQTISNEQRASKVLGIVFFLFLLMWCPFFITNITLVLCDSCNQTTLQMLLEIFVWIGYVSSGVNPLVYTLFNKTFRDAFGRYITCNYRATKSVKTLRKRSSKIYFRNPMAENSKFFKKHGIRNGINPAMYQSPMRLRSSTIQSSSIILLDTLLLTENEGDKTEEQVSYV
T2 sequence (P28223 whole entry, the tested form may be a part): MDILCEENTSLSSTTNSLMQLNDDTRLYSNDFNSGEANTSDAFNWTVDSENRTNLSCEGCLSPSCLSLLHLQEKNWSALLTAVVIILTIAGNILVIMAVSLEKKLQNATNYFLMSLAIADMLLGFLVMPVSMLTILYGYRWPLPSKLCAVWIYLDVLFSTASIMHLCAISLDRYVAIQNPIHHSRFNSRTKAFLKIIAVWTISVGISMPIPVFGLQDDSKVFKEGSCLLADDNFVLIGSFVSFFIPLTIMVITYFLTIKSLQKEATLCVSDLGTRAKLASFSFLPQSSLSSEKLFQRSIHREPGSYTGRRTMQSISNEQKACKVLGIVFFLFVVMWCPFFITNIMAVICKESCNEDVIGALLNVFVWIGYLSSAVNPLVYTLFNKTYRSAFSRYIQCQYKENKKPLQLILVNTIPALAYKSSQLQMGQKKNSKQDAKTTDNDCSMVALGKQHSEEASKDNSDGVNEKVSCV

For orientation: EC50 means the concentration that produces a half-maximal response. Usually Ki stands for a dissociation constant, usually derived from enzyme kinetics or from competition with a known ligand. High values mean a looser hold on the target, low ones a stronger hold on the target. The half-life is the time needed for the level to fall by half in the phase considered. A lower half-life goes with rapid decline. In general, microsomal CLint refers to a measure of how fast metabolising enzymes remove a compound, apart from limits set by blood flow. As to `CCC(N)Cc1cc(OC)c(CCCCCC(F)(F)F)cc1OC` (racemic) [Compound 2a, 1-(2,5-dimethoxy-4-(6,6,6-trifluorohexyl)phenyl)butan-2-amine], at 5-HT2B receptor, the EC50 is more than 10000 nM and the Emax is 4.85%. At 5-HT2A receptor [1], the concentration for a half-maximal effect (EC50) was 33.2 nM, the “agonist activity at 5-HT2A in arrestin assay (in words)” value was “higher efficacy in this assay than in the 5-HT2A FLIPR assay” and the Emax stood at 56.8%. At 5-HT2A receptor [2], the Ki was determined as 5.4 nM. In addition, the “binding at 5-HT2A receptors (in words)” value on 5-HT2A receptor [2] ([3H]ketanserin) is reported as “potent ligands for 5-HT2A”. Also, on 5-HT2A receptor [3], the EC50 was 156 nM and the Emax is 36.2%. Also, the “agonist activity at 5-HT2A (in words)” value on 5-HT2A receptor [3] (Ca2+ flux) is “substantially less potent than 1R and 1S in the 5-HT2A FLIPR assay; also recorded: substantially lower efficacy than 1R or 1S”. Moreover, in series [4], the “stability in HLM (in words)” value was “significantly higher stability compared to 1R and 1S”; the half-life at 1 µM was more than 145 min; the microsomal CLint at 1 µM is less than 9.6 µL/min/mg. In addition, in series [5], the “stability in DLM (in words)” value is “significantly higher stability compared to 1R and 1S”; the half-life at 1 µM was 71.3 min; the microsomal CLint at 1 µM was determined as 19.4 µL/min/mg.
On to `CCCCCCc1cc(OC)c(C[C@H](N)CC)cc1OC` [Compound 1R, (R)-1-(4-hexyl-2,5-dimethoxyphenyl)butan-2-amine], for which, at 5-HT2B receptor, the EC50 was more than 10000 nM and the Emax turned out to be 14.8%. Moreover, at 5-HT2A receptor [1], the EC50 was found to be 6.23 nM, the “agonist activity at 5-HT2A in arrestin assay (in words)” value was “substantially more efficacious compared to 1S” and the Emax was found to be 82.5%. The affinity at 5-HT2A receptor [2] corresponds to a Ki of 3.44 nM. Besides, at 5-HT2A receptor [2] (1R, over 5-HT2B and 5-HT2C, compared to 1S), the “selectivity for 5-HT2A (in words)” value is “greater selectivity for 5-HT2A”. Further, on 5-HT2A receptor [3], the EC50 amounted to 23.1 nM and the Emax amounted to 76.8%. The “fold more potent at 5-HT2A” value at 5-HT2A receptor [3] (1R compared to 1S, Ca2+ flux) is listed as ~ 2 fold. Also, at 5-HT2A receptor [3] (Ca2+ flux), the “agonist activity at 5-HT2A (in words)” value is recorded as “Efficacy at 5-HT2A was also greater for 1R compared to 1S”. Besides, in series [4], the “stability in HLM (in words)” value is recorded as “substantially more stable than 1S”, the half-life at 1 µM came out at 37.5 min and the microsomal CLint at 1 µM is 37 µL/min/mg. Also, the “CLint and half-life in HLM (in words)” value in series [4] (1R versus 1S) is “lower CLint and longer half-life”. Besides, in series [5], the “stability in DLM (in words)” value is recorded as “substantially less stable than 1S”, the half-life at 1 µM came to 11.3 min and the intrinsic clearance (microsomal CLint) at 1 µM came out at 122 µL/min/mg. Further, in series [5] (1R versus 1S), the “CLint and half-life in DLM (in words)” value was “higher CLint and shorter half-life”.
As to `CCCCCCc1cc(OC)c(C[C@@H](N)CC)cc1OC` [Compound 1S, (S)-1-(4-hexyl-2,5-dimethoxyphenyl)butan-2-amine], the EC50 is more than 10000 nM at 5-HT2B receptor, 7.85 nM at 5-HT2A receptor [1] and 43.8 nM on 5-HT2A receptor [3]. Besides, the Emax was determined as 16.1% on 5-HT2B receptor, 58.5% at 5-HT2A receptor [1] and 59.7% at 5-HT2A receptor [3]. The affinity on 5-HT2A receptor [2] corresponds to a Ki of 3.34 nM. The half-life at 1 µM in series [4] stood at 19.7 min; in series [5], 22.9 min. Moreover, the microsomal CLint at 1 µM in series [4] came out at 70.2 µL/min/mg; in series [5], 60.4 µL/min/mg.
